Test results published in the supplement of paper PMC4862054.
Values joined by “and” are separate entries in the source; they are usually repeats but may differ in a detail not shown here. Equal values may be shown once.

Key:
Settings in all cases: incubation time: 72 h
MDA-MB-436 = test: drug sensitivity score (DSS), CellTiter-Blue viability (DSS (AUC-based score)); higher = stronger viability inhibition; extreme values may be limits of the assay
Experimental: (§1)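 DSRT with the CellTiter-Blue (resazurin reduction) viability readout, fluorescence 560/590 nm, 72 h incubation. Plates were normalised to DMSO and benzethonium chloride controls. DSS is computed from the area under the fitted dose-response curve (5 or 9 concentrations).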

MDA-MB-231 = test: as above
Experimental: as §1

CAL-85-1 = test: as above
Experimental: as §1

BT-474 [1] = test: as above
Experimental: as §1

Hs578T [2] = test: as above
Experimental: as §1

CAL-51 [3] = test: as above
Experimental: as §1

MDA-MB-468 = test: as above
Experimental: as §1

CAL-148 [4] = test: as above
Experimental: as §1

CAL-120 [5] = test: as above
Experimental: as §1

SK-BR-3 = test: as above
Experimental: as §1

HCC1143 = test: as above
Experimental: as §1

HCC1599 = test: as above
Experimental: as §1

MFM-223 [6] = test: as above
Experimental: as §1

DU-4475 = test: as above
Experimental: as §1

HDQ-P1 = test: as above
Experimental: as §1

HCC1937 [7] = test: as above
Experimental: as §1

BT-549 = test: as above
Experimental: as §1

MDA-MB-453 [8] = test: as above
Experimental: as §1

BT-474 [9] = test: drug sensitivity score (DSS), CellTox Green (DSS (AUC-based score)); higher = stronger drug effect (viability inhibition or cytotoxicity); extreme values may be limits of the assay
Procedure, shortened: (§2)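 The drug sensitivity score was computed from the area under the fitted dose-response curve. Breast cancer cell lines in 20 µl suspension went into 384-well plates holding compound at 5 concentrations (10-fold steps over a 10,000-fold, compound-specific range) for 72 h of incubation. CellTox Green fluorescence (485/520 nm) was read before CellTiter-Glo luminescence, the latter after 10 min at room temperature, and each plate was normalised to 0.1 % DMSO and a positive kill control.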

Hs578T [10] = test: as above
Procedure, shortened: as §2

CAL-51 [11] = test: as above
Procedure, shortened: as §2

CAL-148 [12] = test: as above
Procedure, shortened: as §2

CAL-120 [13] = test: as above
Procedure, shortened: as §2

MFM-223 [14] = test: as above
Procedure, shortened: as §2

HCC1937 [15] = test: as above
Procedure, shortened: as §2

MDA-MB-453 [16] = test: as above
Procedure, shortened: as §2

`O=NN(CCCl)C(=O)NCCCl` [Carmustine] gave a drug sensitivity score (MDA-MB-436) of 0, a drug sensitivity score (MDA-MB-231) of 0 and a drug sensitivity score (CAL-85-1) of 0. It also gave a drug sensitivity score (BT-474 [1]) of 0, a drug sensitivity score (Hs578T [2]) of 0 and a drug sensitivity score (CAL-51 [3]) of 0. It also gave a drug sensitivity score (MDA-MB-468) of 0, a drug sensitivity score (CAL-148 [4]) of 0 and a drug sensitivity score (CAL-120 [5]) of 0. For the same molecule, the drug sensitivity score (SK-BR-3) was 0, the drug sensitivity score (HCC1143) was 0 and the drug sensitivity score (HCC1599) was 0. It also gave a drug sensitivity score (MFM-223 [6]) of 0, a drug sensitivity score (DU-4475) of 0 and a drug sensitivity score (HDQ-P1) of 0. For the same molecule, the drug sensitivity score (HCC1937 [7]) was 0, the drug sensitivity score (BT-549) was 0 and the drug sensitivity score (MDA-MB-453 [8]) was 0. For the same molecule, the drug sensitivity score (BT-474 [9]) was 0, the drug sensitivity score (Hs578T [10]) was 0 and the drug sensitivity score (CAL-51 [11]) was 0. The drug sensitivity score (CAL-148 [12]) was 0, the drug sensitivity score (CAL-120 [13]) was 0 and the drug sensitivity score (MFM-223 [14]) was 0. The drug sensitivity score (HCC1937 [15]) was 0 and the drug sensitivity score (MDA-MB-453 [16]) was 0.

For `CC(=O)O[C@@]12CO[C@@H]1C[C@H](O)[C@@]1(C)C(=O)[C@H](O)C3=C(C)[C@@H](OC(=O)[C@H](O)[C@@H](NC(=O)OC(C)(C)C)c4ccccc4)C[C@@](O)([C@@H](OC(=O)c4ccccc4)[C@H]21)C3(C)C` [Docetaxel], the drug sensitivity score (MDA-MB-436) was 18.7 and 19.2, the drug sensitivity score (MDA-MB-231) was 24.4 and 25.8 and the drug sensitivity score (CAL-85-1) was 22.5 and 22.9. For the same molecule, the drug sensitivity score (BT-474 [1]) was 21.1 and 19.5, the drug sensitivity score (Hs578T [2]) was 31.2 and 30.6 and the drug sensitivity score (CAL-51 [3]) was 22.4 and 25.2. For the same molecule, the drug sensitivity score (MDA-MB-468) was 19.4 and 20.5, the drug sensitivity score (CAL-148 [4]) was 26.1 and 28.4 and the drug sensitivity score (CAL-120 [5]) was 24 and 24.9. The drug sensitivity score (SK-BR-3) was 28.9 and 29.4, the drug sensitivity score (HCC1143) was 19.6 and 25.2 and the drug sensitivity score (HCC1599) was 0. The drug sensitivity score (MFM-223 [6]) was 16.2 and 17.8, the drug sensitivity score (DU-4475) was 26.1 and 28.1 and the drug sensitivity score (HDQ-P1) was 17.8 and 22.5. The drug sensitivity score (HCC1937 [7]) was 27.2 and 24.9, the drug sensitivity score (BT-549) was 27.3 and 29.3 and the drug sensitivity score (MDA-MB-453 [8]) was 24.2 and 24.9. The drug sensitivity score (BT-474 [9]) was 11.8, the drug sensitivity score (Hs578T [10]) was 19.2 and the drug sensitivity score (CAL-51 [11]) was 26.2. For the same molecule, the drug sensitivity score (CAL-148 [12]) was 0, the drug sensitivity score (CAL-120 [13]) was 0.904 and the drug sensitivity score (MFM-223 [14]) was 10.2. It also gave a drug sensitivity score (HCC1937 [15]) of 1.03 and a drug sensitivity score (MDA-MB-453 [16]) of 0.

Work on `CC1(C)CNc2cc(NC(=O)c3cccnc3NCc3ccncc3)ccc21` [Motesanib] yielded a drug sensitivity score (MDA-MB-436) of 0, a drug sensitivity score (MDA-MB-231) of 0 and a drug sensitivity score (CAL-85-1) of 0. It also gave a drug sensitivity score (BT-474 [1]) of 0, a drug sensitivity score (Hs578T [2]) of 0 and a drug sensitivity score (CAL-51 [3]) of 0. It also gave a drug sensitivity score (MDA-MB-468) of 0, a drug sensitivity score (CAL-148 [4]) of 0 and a drug sensitivity score (CAL-120 [5]) of 0. It also gave a drug sensitivity score (SK-BR-3) of 0, a drug sensitivity score (HCC1143) of 0 and a drug sensitivity score (HCC1599) of 0. The drug sensitivity score (MFM-223 [6]) was 0, the drug sensitivity score (DU-4475) was 0 and the drug sensitivity score (HDQ-P1) was 0. For the same molecule, the drug sensitivity score (HCC1937 [7]) was 0, the drug sensitivity score (BT-549) was 0 and the drug sensitivity score (MDA-MB-453 [8]) was 0. For the same molecule, the drug sensitivity score (BT-474 [9]) was 0, the drug sensitivity score (Hs578T [10]) was 0 and the drug sensitivity score (CAL-51 [11]) was 0. For the same molecule, the drug sensitivity score (CAL-148 [12]) was 0, the drug sensitivity score (CAL-120 [13]) was 0 and the drug sensitivity score (MFM-223 [14]) was 0. It also gave a drug sensitivity score (HCC1937 [15]) of 0 and a drug sensitivity score (MDA-MB-453 [16]) of 0.

Molecule `CC(C)(C)c1cnc(CSc2cnc(NC(=O)C3CCNCC3)s2)o1` [SNS-032] has a drug sensitivity score (MDA-MB-436) of 15, a drug sensitivity score (MDA-MB-231) of 21.1 and a drug sensitivity score (CAL-85-1) of 22.1. The drug sensitivity score (BT-474 [1]) was 15.2, the drug sensitivity score (Hs578T [2]) was 23.1 and the drug sensitivity score (CAL-51 [3]) was 13.8. The drug sensitivity score (MDA-MB-468) was 16.5, the drug sensitivity score (CAL-148 [4]) was 19.6 and the drug sensitivity score (CAL-120 [5]) was 18.9. It also gave a drug sensitivity score (SK-BR-3) of 22, a drug sensitivity score (HCC1143) of 17.4 and a drug sensitivity score (HCC1599) of 18. For the same molecule, the drug sensitivity score (MFM-223 [6]) was 17.5, the drug sensitivity score (DU-4475) was 20.1 and the drug sensitivity score (HDQ-P1) was 21.3. For the same molecule, the drug sensitivity score (HCC1937 [7]) was 20.4, the drug sensitivity score (BT-549) was 17.6 and the drug sensitivity score (MDA-MB-453 [8]) was 20. For the same molecule, the drug sensitivity score (BT-474 [9]) was 0, the drug sensitivity score (Hs578T [10]) was 17.1 and the drug sensitivity score (CAL-51 [11]) was 15.1. The drug sensitivity score (CAL-148 [12]) was 0, the drug sensitivity score (CAL-120 [13]) was 0 and the drug sensitivity score (MFM-223 [14]) was 6.31. It also gave a drug sensitivity score (HCC1937 [15]) of 0 and a drug sensitivity score (MDA-MB-453 [16]) of 0.

In the case of `Cn1cnc2c(F)c(Nc3ccc(Br)cc3Cl)c(C(=O)NOCCO)cc21` [Selumetinib], the drug sensitivity score (MDA-MB-436) is reported as 0, the drug sensitivity score (MDA-MB-231) is reported as 13.7 and the drug sensitivity score (CAL-85-1) is reported as 6.78. For the same molecule, the drug sensitivity score (BT-474 [1]) was 0, the drug sensitivity score (Hs578T [2]) was 1.17 and the drug sensitivity score (CAL-51 [3]) was 0.877. The drug sensitivity score (MDA-MB-468) was 0, the drug sensitivity score (CAL-148 [4]) was 0 and the drug sensitivity score (CAL-120 [5]) was 0.649. The drug sensitivity score (SK-BR-3) was 0, the drug sensitivity score (HCC1143) was 12.6 and the drug sensitivity score (HCC1599) was 3.63. It also gave a drug sensitivity score (MFM-223 [6]) of 0, a drug sensitivity score (DU-4475) of 25.4 and a drug sensitivity score (HDQ-P1) of 4.32. The drug sensitivity score (HCC1937 [7]) was 2.95, the drug sensitivity score (BT-549) was 0 and the drug sensitivity score (MDA-MB-453 [8]) was 0. It also gave a drug sensitivity score (BT-474 [9]) of 0, a drug sensitivity score (Hs578T [10]) of 0 and a drug sensitivity score (CAL-51 [11]) of 0. For the same molecule, the drug sensitivity score (CAL-148 [12]) was 0, the drug sensitivity score (CAL-120 [13]) was 2 and the drug sensitivity score (MFM-223 [14]) was 0. It also gave a drug sensitivity score (HCC1937 [15]) of 0 and a drug sensitivity score (MDA-MB-453 [16]) of 0.

`Nc1nc2[nH]cnc2c(=S)[nH]1` [Thioguanine] was tested, and the drug sensitivity score (MDA-MB-436) was 4.56, the drug sensitivity score (MDA-MB-231) was 8.63 and the drug sensitivity score (CAL-85-1) was 3.32. It also gave a drug sensitivity score (BT-474 [1]) of 0, a drug sensitivity score (Hs578T [2]) of 2.55 and a drug sensitivity score (CAL-51 [3]) of 0.794. For the same molecule, the drug sensitivity score (MDA-MB-468) was 7.48, the drug sensitivity score (CAL-148 [4]) was 2.39 and the drug sensitivity score (CAL-120 [5]) was 7.28. It also gave a drug sensitivity score (SK-BR-3) of 0.902, a drug sensitivity score (HCC1143) of 0 and a drug sensitivity score (HCC1599) of 0. The drug sensitivity score (MFM-223 [6]) was 0, the drug sensitivity score (DU-4475) was 0 and the drug sensitivity score (HDQ-P1) was 0. It also gave a drug sensitivity score (HCC1937 [7]) of 3.55, a drug sensitivity score (BT-549) of 0.924 and a drug sensitivity score (MDA-MB-453 [8]) of 0. It also gave a drug sensitivity score (BT-474 [9]) of 0, a drug sensitivity score (Hs578T [10]) of 0 and a drug sensitivity score (CAL-51 [11]) of 0. It also gave a drug sensitivity score (CAL-148 [12]) of 0, a drug sensitivity score (CAL-120 [13]) of 0 and a drug sensitivity score (MFM-223 [14]) of 0. For the same molecule, the drug sensitivity score (HCC1937 [15]) was 0 and the drug sensitivity score (MDA-MB-453 [16]) was 0.
